Patent publication US8232269B2, “Amide compounds useful in therapy” (Pfizer Inc., priority 2008, dated 2012)

The compounds below were run against T1, Progesterone Receptor (PR) (Homo sapiens, UniProt P06401) (assay: In vitro functional assay for progesterone receptor (PR) antagonists: inhibition of progesterone-induced alkaline phosphatase expression in T47D cells). Settings: antagonist format, 5 nM progesterone, Ki calculated from IC50 with the Cheng-Prusoff equation.
T1 construct: endogenous in cells; host or cells: T47D human breast mammary carcinoma cells
T1 sequence (P06401 1-933): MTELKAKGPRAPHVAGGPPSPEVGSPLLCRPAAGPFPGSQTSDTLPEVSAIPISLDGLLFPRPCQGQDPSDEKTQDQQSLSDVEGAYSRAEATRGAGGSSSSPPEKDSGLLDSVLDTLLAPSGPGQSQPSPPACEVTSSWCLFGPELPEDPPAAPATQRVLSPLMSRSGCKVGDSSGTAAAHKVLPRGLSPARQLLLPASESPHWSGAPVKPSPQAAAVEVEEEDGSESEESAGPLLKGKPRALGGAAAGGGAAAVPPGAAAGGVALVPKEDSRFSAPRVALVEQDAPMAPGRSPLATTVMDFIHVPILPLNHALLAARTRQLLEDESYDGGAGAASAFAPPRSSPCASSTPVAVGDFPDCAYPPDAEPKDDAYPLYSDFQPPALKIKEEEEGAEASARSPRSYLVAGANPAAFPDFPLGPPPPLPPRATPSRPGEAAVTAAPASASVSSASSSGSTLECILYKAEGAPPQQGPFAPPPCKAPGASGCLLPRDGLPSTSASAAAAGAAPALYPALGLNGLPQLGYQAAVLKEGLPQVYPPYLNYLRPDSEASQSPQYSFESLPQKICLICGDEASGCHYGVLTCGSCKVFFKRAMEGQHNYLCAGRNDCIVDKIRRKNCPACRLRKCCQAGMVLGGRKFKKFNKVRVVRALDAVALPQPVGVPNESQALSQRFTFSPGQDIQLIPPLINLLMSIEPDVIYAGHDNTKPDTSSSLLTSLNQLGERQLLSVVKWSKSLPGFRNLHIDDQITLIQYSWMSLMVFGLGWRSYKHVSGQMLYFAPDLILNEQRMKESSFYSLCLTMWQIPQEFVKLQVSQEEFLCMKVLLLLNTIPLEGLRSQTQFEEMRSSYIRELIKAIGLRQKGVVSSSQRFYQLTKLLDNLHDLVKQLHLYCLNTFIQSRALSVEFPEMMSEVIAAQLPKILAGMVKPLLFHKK
Type: cell-based
Text: 1.0 In vitro Functional Assay for Progesterone Receptor (PR) Antagonists, Agonists and Modulators
The assay for PR antagonism takes advantage of the extensively reported modulation of alkaline phosphatase (AP) expression in human breast T47D mammary carcinoma cells {Beck et al., D. P. (1993). The progesterone antagonist RU486 acquires agonist activity upon stimulation of cAMP signalling pathways. Proc Natl Acad Sci USA 90, 4441-4445; Fensome et al. (2002). New progesterone receptor antagonists: 3,3-disubstituted-5-aryloxindoles. Bioorg Med Chem Lett 12, 3487-3490; Zhang et al., (2002a). 6-Aryl-1,4-dihydro-benzo d1,3oxazin-2-ones: a novel class of potent, selective, and orally active nonsteroidal progesterone receptor antagonists. Journal of Medicinal Chemistry 45, 4379-4382; Zhang et al., (2003). Novel 6-aryl-1,4-dihydrobenzo d oxazine-2-thiones as potent, selective, and orally active nonsteroidal progesterone receptor agonists. Bioorganic & Medicinal Chemistry Letters 13, 1313-1316; Zhang et al., (2002b). Potent nonsteroidal progesterone receptor agonists: synthesis and SAR study of 6-aryl benzoxazines. Bioorganic & Medicinal Chemistry Letters 12, 787-790; Zhang, Z. et al., (2000). In vitro characterization of trimegestone: a new potent and selective progestin. Steroids 65, 637-643}. […] In the absence of progesterone any agonist activity is also observed as an induction of AP activity. By running the assay in two formats (+/−progesterone (P4)), compounds behaving as PR antagonists, agonists, partial agonists or modulators with mixed agonist/antagonist activity can be identified.
Briefly, T47D cells are grown by propagating in DMEM with phenol red+10% FCS+2 mM Glutamine at 37° C./5% CO2. At 70-80% confluence, the media is exchanged for phenol red free DMEM+5% CS-FCS (Assay media). Cells are incubated overnight in assay media then harvested and frozen in assay media containing 10% DMSO at 1.5e7 cells/mL in 2 mL aliquots using a Planer and immediately stored in liquid nitrogen. Vials are removed from liquid nitrogen storage and immediately thawed in a water bath at 37° C. The cell suspension is added dropwise to 20 mL of assay media, then the tube centrifuged at 1000 rpm for 4 minutes, the supernatant is discarded and the pellet re-suspended in 20 mL assay media. T47D cells are then plated at 8750 cells/well in 35 μL assay media in sufficient white solid 384 well TC plates for the assay. For the agonist format assay a further 10 μL of assay media is added to each well. These plates are then cultured for 3-6 hours at 37° C./5% CO2 before compound addition.
Test substances are prepared by in 100% DMSO, half log concentrations from 4 mM in 384 well plates 5 μL/well (referred to here as ‘grandmother plates’). Progesterone is 100 μM made up in ethanol and PBS (i.e. add 1 mL ethanol to progesterone initially to help dissolving) and stored in 0.5-1 mL aliquots at −20° C.
Using a multidrop (Thermolabsystems), 60 μL/well of buffer is added to a 384 well plate—this will be the ‘mother plate’. _Add 45 μL well buffer to grandmother plate using the multidrop (=400 μM 10% DMSO dilution). Mixed and spun to remove air bubbles. • 20 μL is taken from the grandmother plate (400 μM 10% DMSO) and added to the mother plate (=100 μM 2.5% DMSO). Mixed and spun to remove air bubbles Preparation of Max/Min:
Antagonist Min: (Checker Pattern on Plate Map) 1 μM RU-486 (FAC 0.1 μM) • 50 μL of 0.2 mM RU-486 • 10 mL Diluent Addition of Test Substance to Cell Plates • The PlateMate Plus was used to add 5 μL MAX/MIN to cell plates • Then 5 μL test substances are added from the mother plate (after removing max/min PlateMate tips: columns 1 and 24)
Addition of Agonist (5 nM Progesterone FAC) for Antagonist Format Only
25 nM progesterone in assay media is prepared from 100 μM stock (12.5 μL progesterone/50 mL media), from which 10 μL per well is transferred to the assay plate using the PlateMate Plus (already containing cells & compound). […]

| Compound | Ki |
| --- | --- |
| CC(C)C(=O)N1CC[C@@H](NC(=O)c2c(C3CC3)c(-c3ccc(C#N)cc3)nn2C(C)C)C1 [Example 11, 3-(4-Cyanophenyl)-4-cyclopropyl-N-[(3R)-1-isobutyrylpyrrolidin-3-yl]-1-isopropyl-1H-pyrazole-5-carboxamide] | 18.6 nM |
| CC(C)n1nc(-c2ccc(C#N)cc2)c(C2CC2)c1C(=O)N[C@@H]1CCN(S(C)(=O)=O)C1 [Example 13, 3-(4-Cyanophenyl)-4-cyclopropyl-1-isopropyl-N-[(3R)-1-(methylsulfonyl)pyrrolin-3-yl]-1H-pyrazole-5-carboxamide] | 34.8 nM |
| CC(C)C(=O)N1CC[C@H](NC(=O)c2c(C3CC3)c(-c3ccc(C#N)cc3)nn2C(C)C)C1 [Example 14, 3-(4-Cyanophenyl)-4-cyclopropyl-N-[(3S)-1-isobutyrylpyrrolidin-3-yl]-1-isopropyl-1H-pyrazole-5-carboxamide] | 302 nM |
| CCC(=O)N1CC[C@H](NC(=O)c2c(C3CC3)c(-c3ccc(C#N)cc3)nn2C(C)C)C1 [Example 15, 3-(4-Cyanophenyl)-4-cyclopropyl-1-isopropyl-N-[(3S)-1-propionylpyrrolidin-3-yl]-1H-pyrazole-5-carboxamide] | 280 nM |
| CC(C)C(=O)N1CC(NC(=O)c2c(C3CC3)c(-c3ccc(C#N)cc3)nn2C(C)C)C1 [Example 16, 3-(4-Cyanophenyl)-4-cyclopropyl-N-(1-isobutyrylazetidin-3-yl)-1-isopropyl-1H-pyrazole-5-carboxamide] | 42.8 nM |
| CCC(=O)N1CC(NC(=O)c2c(C3CC3)c(-c3ccc(C#N)cc3)nn2C(C)C)C1 [Example 17, 3-(4-Cyanophenyl)-4-cyclopropyl-1-isopropyl-N-(1-propionylazetidin-3-yl)-1H-pyrazole-5-carboxamide] | 42.2 nM |
| CC(C)n1nc(-c2ccc(C#N)cc2)c(C2CC2)c1C(=O)NC1CN(S(C)(=O)=O)C1 [Example 18, 3-(4-Cyanophenyl)-4-cyclopropyl-1-isopropyl-N-[1-(methylsulfonyl)azetidin-3-yl]-1H-pyrazole-5-carboxamide] | 38.2 nM |
| CC(=O)N1CC(NC(=O)c2c(C3CC3)c(-c3ccc(C#N)cc3)nn2C(C)C)C1 [Example 19, N-(1-Acetylazetidin-3-yl)-3-(4-cyanophenyl)-4-cyclopropyl-1-isopropyl-1H-pyrazole-5-carboxamide] | 51.4 nM |
| CCCNC(=O)c1c(C2CC2)c(-c2ccc(C#N)cc2)nn1C(C)C [Example 20, 3-(4-Cyanophenyl)-4-cyclopropyl-1-isopropyl-N-propyl-1H-pyrazole-5-carboxamide] | 3.78 nM |
| COCCCNC(=O)c1c(C2CC2)c(-c2ccc(C#N)cc2)nn1C(C)C [Example 21, 3-(4-Cyanophenyl)-4-cyclopropyl-1-isopropyl-N-(3-methoxypropyl)-1H-pyrazole-5-carboxamide] | 8.27 nM |
| CC(C)n1nc(-c2ccc(C#N)cc2)c(C2CC2)c1C(=O)NCCC(F)(F)F [Example 22, 3-(4-Cyanophenyl)-4-cyclopropyl-1-isopropyl-N-(3,3,3-trifluoropropyl)-1H-pyrazole-5-carboxamide] | 6.67 nM |
| CC(C)n1nc(-c2ccc(C#N)cc2)c(C2CC2)c1C(=O)NCc1ccncn1 [Example 23, 3-(4-Cyanophenyl)-4-cyclopropyl-1-isopropyl-N-(pyrimidin-4-ylmethyl)-1H-pyrazole-5-carboxamide] | 10.2 nM |
| CC(C)n1nc(-c2ccc(C#N)cc2)c(C2CC2)c1C(=O)N[C@H]1CCOC1=O [Example 24, 3-(4-Cyanophenyl)-4-cyclopropyl-1-isopropyl-N-[(3S)-2-oxotetrahydrofuran-3-yl]-1H-pyrazole-5-carboxamide] | 19.4 nM |
| CNC(=O)CNC(=O)c1c(C2CC2)c(-c2ccc(C#N)cc2)nn1C(C)C [Example 25, 3-(4-Cyanophenyl)-4-cyclopropyl-1-isopropyl-N-[2-(methylamino)-2-oxoethyl]-1H-pyrazole-5-carboxamide] | 24.5 nM |
| CC(C)n1nc(-c2ccc(C#N)cc2)c(C2CC2)c1C(=O)NCCCN1CCCC1=O [Example 26, 3-(4-Cyanophenyl)-4-cyclopropyl-1-isopropyl-N-[3-(2-oxopyrrolidin-1-yl)propyl]-1H-pyrazole-5-carboxamide] | 86.1 nM |
| COC(=O)C(C)(C)NC(=O)c1c(C2CC2)c(-c2ccc(C#N)cc2)nn1C(C)C [Example 27] | 161 nM |
| CC(C)n1nc(-c2ccc(C#N)cc2)c(C2CC2)c1C(=O)NCCN [Example 28, N-(2-Aminoethyl)-3-(4-cyanophenyl)-4-cyclopropyl-1-isopropyl-1H-pyrazole-5-carboxamide] | 171 nM |
| CC(C)n1nc(-c2ccc(C#N)cc2)c(C2CC2)c1C(=O)NCC(C)(C)N [Example 29, N-(2-amino-2-methylpropyl)-3-(4-cyanophenyl)-4-cyclopropyl-1-isopropyl-1H-pyrazole-5-carboxamide] | 235 nM |
| CC(C)n1nc(-c2ccc(C#N)cc2)c(C2CC2)c1C(=O)NCc1cnn(C)c1 [Example 30, 3-(4-Cyanophenyl)-4-cyclopropyl-1-isopropyl-N-[(1-methyl-1H-pyrazol-4-yl)methyl]-1H-pyrazole-5-carboxamide] | 30.9 nM |
| CC(C)n1nc(-c2ccc(C#N)cc2)c(C2CC2)c1C(=O)N[C@@H]1CC[C@H](O)C1 [Example 31, 3-(4-Cyanophenyl)-4-cyclopropyl-N-[(1R,3S)-3-hydroxycyclopentyl]-1-isopropyl-1H-pyrazole-5-carboxamide] | 36.3 nM |
| CC(C)n1nc(-c2ccc(C#N)cc2)c(C2CC2)c1C(=O)N[C@H]1C[C@@H](O)C1 [Example 32, 3-(4-Cyanophenyl)-4-cyclopropyl-N-(cis-3-hydroxycyclobutyl)-1-isopropyl-1H-pyrazole-5-carboxamide] | 34.6 nM |
| CC[C@H](C)NC(=O)c1c(C2CC2)c(-c2ccc(C#N)cc2)nn1C(C)C [Example 33, 3-(4-Cyanophenyl)-4-cyclopropyl-1-isopropyl-N-[(1S)-1-methylpropyl]-1H-pyrazole-5-carboxamide] | 7.11 nM |
